Results: ChEMBL document CHEMBL5537197, “Discovery of Novel Coumarin-quinolinium Derivatives as Pan-KRAS Translation Inhibitors by Targeting 5'-UTR RNA G-Quadruplexes” (J Med Chem, 2024)
Active and inactive are the calls of the source. No cut-off for these calls is given here.

What was measured:
[1] = target: GTPase KRas (Homo sapiens) (UniProt P01116); test: Inhibition of KRAS in human MIA PaCa-2 cells at 2.5 uM incubated for 24 hrs by Western blot analysis; format: cell-based
PANC-1 = test: Cytotoxicity against human PANC-1 cells harboring KRAS G12D mutant assessed as cell growth inhibition incubated for 24 hrs by MTT assay; format: functional, cell-based; settings: PANC-1, 24 h
NCM460 = test: Cytotoxicity against human NCM460 cells harboring wild-type KRAS assessed as cell growth inhibition incubated for 24 hrs by MTT assay; format: functional, cell-based; settings: NCM460, 24 h
[2] = target: GTPase KRas (Homo sapiens) (UniProt P01116); test: Inhibition of KRAS in human PANC-1 cells at 2.5 uM incubated for 24 hrs by Western blot analysis; format: cell-based
[3] = Cytotoxicity against human PANC-1 cells […] assessed as cell growth inhibition incubated for 24 hrs by MTT assay; format: functional, cell-based; settings: PANC-1, 24 h
MIA PaCa-2 [4] = test: Cytotoxicity against human MIA PaCa-2 cells harboring KRAS G12C mutant assessed as cell growth inhibition incubated for 24 hrs by MTT assay; format: functional, cell-based; settings: MIA PaCa-2, 24 h
MIA PaCa-2 [5] = test: In vivo inhibition of KRAS in human MIA PaCa-2 cells xenografted in BALB/C-nu/nu mouse model at 2.5 mg/kg,ip everyday for 18 days by IHC analysis; format: functional, organism-based; settings: time 18.0 day
SW-620 = test: Cytotoxicity against human SW620 cells harboring KRAS G12V mutant assessed as cell growth inhibition incubated for 24 hrs by MTT assay; format: functional, cell-based; settings: SW-620, 24 h
[6] = Cytotoxicity against human HFL1 cells harboring wild-type KRAS assessed as cell growth inhibition incubated for 24 hrs by MTT assay; format: toxicity, cell-based
HCT-116 = test: Cytotoxicity against human HCT-116 cells harboring KRAS G13D mutant assessed as cell growth inhibition incubated for 24 hrs by MTT assay; format: functional, cell-based; settings: HCT-116, 24 h
[7] = target: GTPase KRas (Homo sapiens) (UniProt P01116); test: Inhibition of KRAS in human MIA PaCa-2 cells at >5 uM incubated for 24 hrs by Western blot analysis; format: cell-based
[8] = target: GTPase KRas (Homo sapiens) (UniProt P01116); test: Inhibition of KRAS in human PANC-1 cells at >5 uM incubated for 24 hrs by Western blot analysis; format: cell-based
U-87 MG = test: Cytotoxicity against human U-87 MG cells harboring wild-type KRAS assessed as cell growth inhibition incubated for 24 hrs by MTT assay; format: functional, cell-based, U-87MG ATCC
NCI-H358 = test: Cytotoxicity against human NCI-H358 cells harboring KRAS G12C mutant assessed as cell growth inhibition incubated for 24 hrs by MTT assay; format: functional, cell-based; settings: NCI-H358, 24 h
[9] = Cytotoxicity against human LX2 cells harboring wild-type KRAS assessed as cell growth inhibition incubated for 24 hrs by MTT assay; format: toxicity, cell-based, LX-2
HPAF-II = test: Cytotoxicity against human HPAF-II cells harboring KRAS G12D mutant assessed as cell growth inhibition incubated for 24 hrs by MTT assay; format: functional, cell-based

GTPase KRas (Homo sapiens), sequence (P01116 whole entry, looked up): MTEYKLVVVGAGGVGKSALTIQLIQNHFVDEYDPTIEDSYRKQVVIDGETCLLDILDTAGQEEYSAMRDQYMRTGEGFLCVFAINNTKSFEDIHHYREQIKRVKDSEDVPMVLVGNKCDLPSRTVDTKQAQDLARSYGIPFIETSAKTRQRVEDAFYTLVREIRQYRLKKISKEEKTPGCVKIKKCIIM

inhibition [1]	inhibition [2]	inhibition [7]	inhibition [8]	SMILES	IC50 (PANC-1)	IC50 (NCM460)	IC50 [3]	IC50 (MIA PaCa-2 [4])	Activity (MIA PaCa-2 [5])	IC50 (SW-620)	IC50 at 24 h [6]	IC50 (HCT-116)	IC50 (U-87 MG)	IC50 (NCI-H358)	IC50 at 24 h [9]	IC50 (HPAF-II)
Active	Active	–	–	CCN(CC)c1ccc2cc(/C=C/c3ccc4cc(F)c(NCCCN(C)C)cc4[n+]3C)c(=O)oc2c1	9 µM	> 40 µM	> 40 µM	8.6 µM	–	–	–	–	–	–	–	–
Active	Active	–	–	CCN(CC)c1ccc2cc(/C=C/c3ccc4cc(F)c(NCCCN5CCCC5)cc4[n+]3C)c(=O)oc2c1	11.8 µM	> 40 µM	> 40 µM	7.8 µM	–	–	–	–	–	–	–	–
–	–	–	–	C=CC(=O)N1CCN(c2nc(=O)n(-c3c(C)ccnc3C(C)C)c3nc(-c4c(O)cccc4F)c(F)cc23)[C@@H](C)C1 [SOTORASIB]	> 40 µM	> 40 µM	> 40 µM	> 40 µM	inactive	–	–	–	–	–	–	–
Active	Active	–	–	CCN(CC)CCCNc1cc2c(ccc(/C=C/c3cc4ccc(N(CC)CC)cc4oc3=O)[n+]2C)cc1F	7.2 µM	> 40 µM	> 40 µM	7.7 µM	–	–	–	–	–	–	–	–
Active	Active	–	–	CCN(CC)c1ccc2cc(/C=C/c3ccc4cc(F)c(NCCN5CCCCC5)cc4[n+]3C)c(=O)oc2c1	5.8 µM	> 40 µM	> 40 µM	43 µM	–	–	–	–	–	–	–	–
Active	Active	–	–	CCCCN(CCCC)CCCn1cc(CNc2cc3c(cc2F)c(N2CCN(C)CC2)cc(/C=C/c2cc4ccc(N(CC)CC)cc4oc2=O)[n+]3C)nn1	8.8 µM	> 40 µM	> 40 µM	5.9 µM	–	–	–	–	–	–	–	–
–	–	Active	Active	CCN(CC)c1ccc2cc(/C=C/c3ccc4cc(F)c(N5CCN(C)CC5)cc4[n+]3C)c(=O)oc2c1	14.7 µM	> 40 µM	> 40 µM	10.8 µM	–	18.6 µM	> 40 µM	19.1 µM	> 40 µM	11.9 µM	> 40 µM	32.1 µM
